Experimental data from patent US20250009750A1, “METHODS OF TREATING DISORDERS ASSOCIATED WITH EYA OVEREXPRESSION AND MUTATIONS” (The Board of Regents of the University of Texas System, priority 2023, published 2025).

Columns and labels:
[1] = tested on: HRD+ pancreatic cell lines; assay: Survival of treated pancreatic cell lines panel; type: cell-based; details: at the concentrations tested, FIG. 34C
Text: Using molecules that target regulators of DNA metabolism mechanisms (repair, recombination, replication), such as kinase and phosphatase can offer a therapeutic window for drug resistant, HRD>0 patients. EYA4 inhibitors have been tested on the pancreatic cell lines panel. […] EYA4i have therapeutic potential for the treatment of pancreatic cancer, including PARPi refractory disease.

[2] = target: T1, EYA4 tyrosine phosphatase (Homo sapiens, UniProt O95677); assay: Malachite green phosphatase assay, full length EYA4, tyrosine phosphatase activity; type: biochemical; details: increasing amounts of inhibitor
T1 construct: GFP (pEGFP-C1) (N, cleaved yes); made in house; host or cells: Expi293 mammalian suspension cells
T1 sequence (O95677 1-639): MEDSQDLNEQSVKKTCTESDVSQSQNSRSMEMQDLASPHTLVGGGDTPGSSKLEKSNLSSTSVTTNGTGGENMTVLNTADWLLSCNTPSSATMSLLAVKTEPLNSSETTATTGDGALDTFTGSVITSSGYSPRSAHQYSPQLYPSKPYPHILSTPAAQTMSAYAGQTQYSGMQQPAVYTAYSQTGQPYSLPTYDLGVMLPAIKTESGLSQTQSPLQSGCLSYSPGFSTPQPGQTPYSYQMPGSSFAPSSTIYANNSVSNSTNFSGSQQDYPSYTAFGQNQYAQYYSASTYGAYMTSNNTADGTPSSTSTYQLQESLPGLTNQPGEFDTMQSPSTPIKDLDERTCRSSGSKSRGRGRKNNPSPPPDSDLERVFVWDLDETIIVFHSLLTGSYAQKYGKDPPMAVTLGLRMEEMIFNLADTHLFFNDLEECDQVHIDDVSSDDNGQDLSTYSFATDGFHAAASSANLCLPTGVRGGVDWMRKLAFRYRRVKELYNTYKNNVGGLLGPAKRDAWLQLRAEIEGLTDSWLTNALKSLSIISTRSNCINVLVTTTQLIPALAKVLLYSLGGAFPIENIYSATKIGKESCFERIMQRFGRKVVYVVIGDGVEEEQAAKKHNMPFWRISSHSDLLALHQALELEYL
Method: (§1) To measure phosphatase activity, increasing concentrations of EYA4 (0-200 nM, alone or pre-incubated with ssDNA) were incubated in the presence of 400 nM potential substrates (peptides sourced from Genscript, see list and sequence in figures) in 50 μL of reaction buffer A ([…] pH 6, 2 mM MgCl2, 50 μM DTT) for 1 h at 37° C. At the end of the first incubation, the reaction mix containing malachite green was added to phosphatase or ATPase reactions, and the mixture was further incubated for 30 minutes at 37° C. Plates were read at 620 nm in a plate reader. The quantity of […] was inferred from the standard curve prepared as per manufacturer recommendation (Sigma).
[…] proteins have been described to dephosphorylate residue Y142 on the histone variant H2AX and the same activity was recently confirmed in EYA4. Using the synthetic peptide KATQASQE{pTyr} as substrate and a commercial colorimetric malachite green assay (Sigma) that allows to quantify […] released in the buffer by a phosphatase, EYA4's tyrosine phosphatase activity was assayed in the presence of putative inhibitors.
In a malachite green assay, the tyrosine but not serine/threonine phosphatase activity was inhibited by CIDD molecule—149689. […]

[3] = target: T2, EYA4 serine/threonine phosphatase domain (Homo sapiens, UniProt O95677); assay: Malachite green phosphatase assay, first 365 residues of EYA4 (serine/threonine phosphatase domain), 53BP1-derived peptide; type: biochemical
T2 construct: the N-terminus domain of EYA4 (residues 1-365), was sub-cloned as a Strep-mCherry-EYA4-His construct; Strep (N); His (C); made in house; host or cells: Sf9 insect cells (baculovirus, pFastBac1)
T2 sequence (O95677 1-365): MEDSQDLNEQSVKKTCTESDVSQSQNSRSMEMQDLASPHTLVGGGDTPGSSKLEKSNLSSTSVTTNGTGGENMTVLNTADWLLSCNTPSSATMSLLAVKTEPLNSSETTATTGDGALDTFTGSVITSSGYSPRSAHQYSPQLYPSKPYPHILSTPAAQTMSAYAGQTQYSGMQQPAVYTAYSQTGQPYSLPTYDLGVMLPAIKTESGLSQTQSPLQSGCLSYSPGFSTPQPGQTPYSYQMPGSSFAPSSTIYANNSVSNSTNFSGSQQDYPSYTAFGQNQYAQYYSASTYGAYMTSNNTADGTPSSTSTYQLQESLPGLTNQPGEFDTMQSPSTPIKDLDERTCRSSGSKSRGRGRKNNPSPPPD
Method: as §1
In a malachite green assay, the tyrosine but not serine/threonine phosphatase activity was inhibited by CIDD molecule—149689. For this assay, full length EYA4 purified near homogeneity as previously described was incubated with increasing amounts of inhibitor, then mixed with either peptide KATQASQE{pTyr} from H2AX or with peptide from RAD51.

SMILES	growth of pancreatic cells [1]	EYA4 tyrosine phosphatase activity ([2]; peptide KATQASQE{pTyr} from H2AX)	EYA4 tyrosine phosphatase activity ([2]; peptide from RAD51)	serine/threonine phosphatase activity [3]
O=C(NN=Cc1ccc(Sc2ncccn2)o1)c1cccc(Cl)c1 [CSCS14817788384, 3-chloro-N′-{[5-(pyrimidin-2-ylsulfanyl)furan-2-yl]methylidene}benzohydrazide]	does not efficiently inhibit growth	–	–	–
Clc1ccc(CNc2nc(NC3CCCC3)nc3ccccc23)cc1Cl [CIDD molecule—149689, N2-cyclopentyl-N4-(3,4-dichlorobenzyl) quinazoline-2,4-diamine]	–	significantly reduced	significantly reduced	not inhibited
